Assay [1] addresses T1, CYCLIN K (nuclear staining in CAL-120 cells) (Homo sapiens, UniProt O75909).
T1 construct: endogenous in cells; host or cells: CAL-120 human breast cancer cells (DSMZ ACC 459)
Briefly: CYCLIN K nuclear protein level: immunofluorescence high content analysis (CAL-120). The assay is classed as cell-based. To be noted: 24 h, 50% reduction of nuclear CCNK staining intensity, median, read-out: CYCLIN K degradation IF, DC50-[mol/l] (median). The method in brief:
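Readout is automated confocal image analysis of nuclear cyclin K immunofluorescence (Hoechst nuclei) after PFA fixation. Cells were CAL-120, exposed to compound dose-response 24 h at 37 °C; values are DC50 for halving nuclear CCNK signal relative to DMSO and control wells.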

For assay [2], the system named is CAL-120, human breast adenocarcinoma cells. The assay can be described thus: Proliferation assay CAL-120 (crystal violet, 4 days). Type of assay: cell-based. To be noted: Homo sapiens, CAL-120, 96 h, CAL-120 cells, median, read-out: Prolif-CAL-120, IC50-[mol/l] (median). An outline of the steps:
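IC50 from a 4-parameter fit of crystal violet absorbance (595 nm), scaled between a day-0 plate (0%) and untreated wells (100%). Cells grown in 10% FCS medium were exposed to test substances at 0.01-10 µmol/L for 4 days, 0.1% DMSO final.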

The next assay deals with CDK12/CycK (Homo sapiens, UniProt Q9NYV4). Briefly: CDK12/CycK high ATP kinase assay (TR-FRET, 2 mM ATP). Type of assay: biochemical. As to conditions: 2 mM ATP (high ATP); median; read-out: CDK12/CyclinK, 2 mM ATP (high ATP), IC50-[mol/l] (median). An outline of the steps: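 Read-out is TR-FRET (Eu-anti-rabbit IgG, anti-phospho-c-Myc Ser62 antibody, streptavidin-XL665) after EDTA stop. Reaction ran 60 min at 22 °C using 1 µM biotin-peptide and high ATP (2 mM) with roughly 0.75 nM recombinant CDK12/CycK, after 15 min compound pre-binding; normalised emission ratios yield IC50.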
For orientation: TR-FRET usually uses a lanthanide donor and a delayed reading to cut background.

A value given as a limit tells only on which side of the number the result lay.

Chain of CDK12/CycK (Q9NYV4 with tags, fused parts or gaps): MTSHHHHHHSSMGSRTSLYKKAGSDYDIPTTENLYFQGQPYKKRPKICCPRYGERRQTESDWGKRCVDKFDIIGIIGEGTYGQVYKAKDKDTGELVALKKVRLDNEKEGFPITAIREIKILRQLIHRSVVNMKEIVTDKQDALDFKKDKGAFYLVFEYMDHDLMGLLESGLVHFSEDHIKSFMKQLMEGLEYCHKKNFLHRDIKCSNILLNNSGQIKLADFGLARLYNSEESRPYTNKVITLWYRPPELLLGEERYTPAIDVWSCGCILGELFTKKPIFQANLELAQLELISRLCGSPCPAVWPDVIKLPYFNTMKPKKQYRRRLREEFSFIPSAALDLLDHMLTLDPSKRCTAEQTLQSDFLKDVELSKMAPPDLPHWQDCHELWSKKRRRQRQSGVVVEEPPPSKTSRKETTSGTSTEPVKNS
Chain of CDK12/CycK (O75909 1-300 partner limits assumed): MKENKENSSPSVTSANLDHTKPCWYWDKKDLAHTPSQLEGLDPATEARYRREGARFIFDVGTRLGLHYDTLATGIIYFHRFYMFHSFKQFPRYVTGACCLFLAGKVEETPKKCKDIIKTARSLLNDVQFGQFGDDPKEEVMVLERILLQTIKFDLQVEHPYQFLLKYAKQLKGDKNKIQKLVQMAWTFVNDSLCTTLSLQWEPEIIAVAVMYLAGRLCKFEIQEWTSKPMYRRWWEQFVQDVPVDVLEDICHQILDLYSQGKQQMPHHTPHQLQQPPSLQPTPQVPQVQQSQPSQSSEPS
T1 sequence (O75909 whole entry): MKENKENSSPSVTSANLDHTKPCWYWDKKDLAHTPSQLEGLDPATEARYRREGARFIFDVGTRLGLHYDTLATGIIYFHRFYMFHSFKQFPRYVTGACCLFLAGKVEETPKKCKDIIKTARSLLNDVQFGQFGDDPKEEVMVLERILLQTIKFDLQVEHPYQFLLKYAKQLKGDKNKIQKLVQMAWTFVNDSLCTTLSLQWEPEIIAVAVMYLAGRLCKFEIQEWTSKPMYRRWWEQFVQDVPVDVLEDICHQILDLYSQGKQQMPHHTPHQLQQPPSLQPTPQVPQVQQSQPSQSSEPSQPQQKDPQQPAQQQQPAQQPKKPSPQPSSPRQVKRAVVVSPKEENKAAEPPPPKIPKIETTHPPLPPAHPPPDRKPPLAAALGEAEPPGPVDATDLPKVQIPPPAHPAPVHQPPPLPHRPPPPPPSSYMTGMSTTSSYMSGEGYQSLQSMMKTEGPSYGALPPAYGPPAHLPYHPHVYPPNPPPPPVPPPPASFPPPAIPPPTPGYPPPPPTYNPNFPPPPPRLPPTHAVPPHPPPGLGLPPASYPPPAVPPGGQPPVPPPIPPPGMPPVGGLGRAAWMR
T1 sequence (Q9NYV4 whole entry partner): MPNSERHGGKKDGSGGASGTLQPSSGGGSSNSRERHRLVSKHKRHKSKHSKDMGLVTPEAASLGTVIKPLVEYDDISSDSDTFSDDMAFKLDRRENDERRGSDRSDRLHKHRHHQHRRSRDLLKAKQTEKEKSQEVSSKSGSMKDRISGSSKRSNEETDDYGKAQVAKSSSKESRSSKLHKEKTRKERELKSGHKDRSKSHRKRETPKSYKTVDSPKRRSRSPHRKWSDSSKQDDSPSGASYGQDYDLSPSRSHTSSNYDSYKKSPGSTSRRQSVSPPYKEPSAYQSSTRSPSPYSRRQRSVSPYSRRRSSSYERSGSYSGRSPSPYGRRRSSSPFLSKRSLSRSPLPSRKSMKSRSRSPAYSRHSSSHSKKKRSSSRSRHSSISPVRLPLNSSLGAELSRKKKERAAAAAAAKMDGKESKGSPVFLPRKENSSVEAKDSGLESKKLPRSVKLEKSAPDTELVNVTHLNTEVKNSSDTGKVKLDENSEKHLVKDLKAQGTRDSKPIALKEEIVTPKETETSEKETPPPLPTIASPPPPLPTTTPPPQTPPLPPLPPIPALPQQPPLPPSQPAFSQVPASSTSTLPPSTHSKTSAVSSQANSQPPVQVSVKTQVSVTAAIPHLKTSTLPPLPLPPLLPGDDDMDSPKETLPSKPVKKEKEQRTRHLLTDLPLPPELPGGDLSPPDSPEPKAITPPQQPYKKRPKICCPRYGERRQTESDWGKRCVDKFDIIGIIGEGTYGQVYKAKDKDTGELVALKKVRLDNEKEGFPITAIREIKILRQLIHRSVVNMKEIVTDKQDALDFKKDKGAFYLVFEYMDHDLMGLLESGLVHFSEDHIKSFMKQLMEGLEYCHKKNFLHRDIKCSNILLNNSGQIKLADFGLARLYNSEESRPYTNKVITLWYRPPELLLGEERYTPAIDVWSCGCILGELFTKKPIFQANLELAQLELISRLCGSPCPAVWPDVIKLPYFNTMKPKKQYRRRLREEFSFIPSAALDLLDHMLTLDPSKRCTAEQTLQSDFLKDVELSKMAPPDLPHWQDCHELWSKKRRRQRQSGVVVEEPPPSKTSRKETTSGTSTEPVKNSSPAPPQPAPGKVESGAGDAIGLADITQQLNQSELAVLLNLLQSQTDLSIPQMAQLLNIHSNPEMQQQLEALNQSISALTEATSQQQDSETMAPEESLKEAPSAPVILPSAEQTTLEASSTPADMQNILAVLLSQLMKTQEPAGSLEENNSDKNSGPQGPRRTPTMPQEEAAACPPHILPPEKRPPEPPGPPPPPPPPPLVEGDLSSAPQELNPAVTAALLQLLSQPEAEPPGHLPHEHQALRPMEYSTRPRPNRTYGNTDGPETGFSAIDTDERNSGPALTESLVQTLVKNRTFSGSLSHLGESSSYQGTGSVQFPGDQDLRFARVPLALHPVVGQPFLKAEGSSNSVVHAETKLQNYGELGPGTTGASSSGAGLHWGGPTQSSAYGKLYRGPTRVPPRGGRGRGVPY

In the case of `O[C@H]1C[C@@H](Nc2nc(NCc3nc4ccccc4[nH]3)n3ncc(Br)c3n2)C1` [Example 234, cis-3-[(4-{[(1H-benzimidazol-2-yl)methyl]amino}-8-bromopyrazolo[1,5-a][1,3,5]triazin-2-yl)amino]cyclobutan-1-ol], in assay [1], the DC50 is 1.74 nM. Moreover, the IC50 in assay [2] came to 31.3 nM; on CDK12/CycK, 4860 nM.

Turning to `CN1CC[C@H]2CN(c3nc(NCc4nc5ccccc5[nH]4)n4ncc(Br)c4n3)C[C@H]21` [Example 179, N-[(1H-benzimidazol-2-yl)methyl]-8-bromo-2-[(3aS,6aS)-1-methylhexahydropyrrolo[3,4-b]pyrrol-5 (1H)-yl]pyrazolo[1,5-a][1,3,5]triazin-4-amine], the DC50 in assay [1] was 1.37 nM. In addition, the IC50 is 16.7 nM in assay [2] and above 20000 nM at CDK12/CycK.

Turning to `Fc1ccc2[nH]c(CNc3nc(N4C[C@@H]5C[C@H]4CO5)nc4c(C5CC5)cnn34)nc2c1F` [Example 173, 8-cyclopropyl-N-[(4,5-difluoro-1H-benzimidazol-2-yl)methyl]-2-[(1S,4S)-2-oxa-5-azabicyclo[2.2.1]heptan-5-yl]pyrazolo[1,5-a][1,3,5]triazin-4-amine], in assay [1], the DC50 came out at 1.03 nM. For the same molecule, the values for the IC50 (in assay [2]; at CDK12/CycK) were 8.14 nM and above 20000 nM, respectively.

With `Cc1ccc2[nH]c(CNc3nc(N4C[C@@H](C)N[C@@H](C)C4)nc4c(Br)cnn34)nc2c1` [Example 209, 8-bromo-2-[(3R,5S)-3,5-dimethylpiperazin-1-yl]-N-[(5-methyl-1H-benzimidazol-2-yl)methyl]pyrazolo[1,5-a][1,3,5]triazin-4-amine], the DC50 in assay [1] is 0.0619 nM. In addition, the IC50 was 1.28 nM in assay [2] and 6800 nM on CDK12/CycK.

Consider `COc1cccc2[nH]c(CNc3nc(N4C[C@@H](C)N[C@@H](C)C4)nc4c(C5CC5)cnn34)nc12` [Example 212, 8-cyclopropyl-2-[(3R,5S)-3,5-dimethylpiperazin-1-yl]-N-[(4-methoxy-1H-benzimidazol-2-yl)methyl]pyrazolo[1,5-a][1,3,5]triazin-4-amine], for which, in assay [1], the DC50 was 0.47 nM. Besides, the IC50 was determined as 2.29 nM in assay [2] and 4150 nM at CDK12/CycK.

Consider `OC[C@@H]1CCCCN1c1nc(NCc2nc3cc(F)ccc3[nH]2)n2ncc(C3CC3)c2n1` [Example 191, [(2S)-1-(8-cyclopropyl-4-{[(5-fluoro-1H-benzimidazol-2-yl)methyl]amino}pyrazolo[1,5-a][1,3,5]triazin-2-yl)piperidin-2-yl]methanol], for which, in assay [1], the DC50 was found to be 0.187 nM. For the same molecule, the IC50 in assay [2] turned out to be 1.16 nM; at CDK12/CycK, 332 nM.

On to `Fc1cccc2[nH]c(CNc3nc(N4C[C@@H]5C[C@H]4CO5)nc4c(C5CC5)cnn34)nc12` [Example 183, 8-cyclopropyl-N-[(4-fluoro-1H-benzimidazol-2-yl)methyl]-2-[(1S,4S)-2-oxa-5-azabicyclo[2.2.1]heptan-5-yl]pyrazolo[1,5-a][1,3,5]triazin-4-amine], for which the DC50 in assay [1] is 1.64 nM. Also, the IC50 in assay [2] was found to be 27.4 nM; on CDK12/CycK it was 10200 nM.

Consider `Cc1ccc2[nH]c(CNc3nc(N4C[C@H]5C[C@@H]4CO5)nc4c(C5CC5)cnn34)nc2c1` [Example 196, 8-cyclopropyl-N-[(5-methyl-1H-benzimidazol-2-yl)methyl]-2-[(1R,4R)-2-oxa-5-azabicyclo[2.2.1]heptan-5-yl]pyrazolo[1,5-a][1,3,5]triazin-4-amine], for which the DC50 in assay [1] turned out to be 2.29 nM. For the same molecule, the IC50 in assay [2] turned out to be 8.05 nM; at CDK12/CycK it was 15400 nM.

In the case of `Cc1ccc2[nH]c(CNc3nc(N4C[C@@H]5CCCN[C@@H]5C4)nc4c(C5CC5)cnn34)nc2c1` [Example 195, 8-cyclopropyl-N-[(5-methyl-1H-benzimidazol-2-yl)methyl]-2-[(4aS,7aS)-octahydro-6H-pyrrolo[3,4-b]pyridin-6-yl]pyrazolo[1,5-a][1,3,5]triazin-4-amine], in assay [1], the DC50 is 1.29 nM. Further, the values for the IC50 (in assay [2]; on CDK12/CycK) were 4.46 nM and 8230 nM, respectively.

For `Fc1ccc2[nH]c(CNc3nc(N4CCNCC4)nc4c(C5CC5)cnn34)nc2c1` [Example 190, 8-cyclopropyl-N-[(5-fluoro-1H-benzimidazol-2-yl)methyl]-2-(piperazin-1-yl)pyrazolo[1,5-a][1,3,5]triazin-4-amine], in assay [1], the DC50 was 0.268 nM. The results for the IC50 (in assay [2]; on CDK12/CycK) were 6.68 nM and 6170 nM, respectively.

`COc1cccc2[nH]c(CNc3nc(N4CCNCC4)nc4c(C5CC5)cnn34)nc12` [Example 211, 8-cyclopropyl-N-[(4-methoxy-1H-benzimidazol-2-yl)methyl]-2-(piperazin-1-yl)pyrazolo[1,5-a][1,3,5]triazin-4-amine]: in assay [1], the DC50 was determined as 0.478 nM. The figures for the IC50 (in assay [2]; at CDK12/CycK) were 2.29 nM and 2740 nM, respectively.

Turning to `Fc1ccc2[nH]c(CNc3nc(N4C[C@@H]5CCCN[C@@H]5C4)nc4c(C5CC5)cnn34)nc2c1` [Example 180, 8-cyclopropyl-N-[(5-fluoro-1H-benzimidazol-2-yl)methyl]-2-[(4aS, 7aS)-octahydro-6H-pyrrolo[3,4-b]pyridin-6-yl]pyrazolo[1,5-a][1,3,5]triazin-4-amine], the DC50 in assay [1] came out at 0.859 nM. The figures for the IC50 (in assay [2]; at CDK12/CycK) were 1.27 nM and 17300 nM, respectively.

Turning to `CN1CCN(c2nc(NCc3nc4ccccc4[nH]3)n3ncc(Br)c3n2)CC1` [Example 18, N-[(1H-benzimidazol-2-yl)methyl]-8-bromo-2-(4-methylpiperazin-1-yl)pyrazolo[1,5-a][1,3,5]triazin-4-amine], in assay [1], the DC50 was determined as 1.39 nM. Moreover, the IC50 is 32.4 nM in assay [2] and above 15700 nM on CDK12/CycK.

Regarding `Fc1ccc2[nH]c(CNc3nc(N4CCOCC4)nc4c(C5CC5)cnn34)nc2c1` [Example 181, 8-cyclopropyl-N-[(5-fluoro-1H-benzimidazol-2-yl)methyl]-2-(morpholin-4-yl)pyrazolo[1,5-a][1,3,5]triazin-4-amine], the DC50 in assay [1] stood at 0.503 nM. Besides, the IC50 came to 6.1 nM in assay [2] and 1910 nM at CDK12/CycK.

Turning to `CN1CC2CCC(C1)N2c1nc(NCc2nc3ccccc3[nH]2)n2ncc(Br)c2n1` [Example 226, N-(1H-benzimidazol-2-ylmethyl)-8-bromo-2-(3-methyl-3,8-diazabicyclo[3.2.1]octan-8-yl)pyrazolo[1,5-a][1,3,5]triazin-4-amine], the DC50 in assay [1] came to 3.89 nM. Further, the IC50 in assay [2] is 116 nM; on CDK12/CycK, above 20000 nM.

Take `Cc1ccc2[nH]c(CNc3nc(N4CCNCC4)nc4c(Br)cnn34)nc2c1` [Example 204, 8-bromo-N-[(5-methyl-1H-benzimidazol-2-yl)methyl]-2-(piperazin-1-yl)pyrazolo[1,5-a][1,3,5]triazin-4-amine]: the DC50 in assay [1] turned out to be 0.0967 nM. Moreover, the values for the IC50 (in assay [2]; at CDK12/CycK) were 0.869 nM and 4340 nM, respectively.

As for `C[C@@H]1CN(c2nc(NCc3nc4ccccc4[nH]3)n3ncc(Br)c3n2)CCN1` [Example 168, N-[(1H-benzimidazol-2-yl)methyl]-8-bromo-2-[(3R)-3-methylpiperazin-1-yl]pyrazolo[1,5-a][1,3,5]triazin-4-amine], the DC50 in assay [1] was determined as 0.973 nM. Moreover, the IC50 was 3.25 nM in assay [2] and 5780 nM on CDK12/CycK.

As for `C[C@H]1CN(c2nc(NCc3nc4ccccc4[nH]3)n3ncc(Br)c3n2)CCN1` [Example 169, N-[(1H-benzimidazol-2-yl)methyl]-8-bromo-2-[(3S)-3-methylpiperazin-1-yl]pyrazolo[1,5-a][1,3,5]triazin-4-amine], the DC50 in assay [1] was 1.95 nM. In addition, the IC50 in assay [2] was found to be 3.56 nM; at CDK12/CycK, 13700 nM.

Turning to `CC1(C)CN(c2nc(NCc3nc4ccccc4[nH]3)n3ncc(Br)c3n2)CCN1` [Example 216, N-[(1H-benzimidazol-2-yl)methyl]-8-bromo-2-(3,3-dimethylpiperazin-1-yl)pyrazolo[1,5-a][1,3,5]triazin-4-amine], the DC50 in assay [1] was determined as 0.354 nM. Moreover, the IC50 was 8.55 nM in assay [2] and above 4590 nM on CDK12/CycK.

Consider `COc1cccc2[nH]c(CNc3nc(N4CCN(C)CC4)nc4c(C5CC5)cnn34)nc12` [Example 197, 8-cyclopropyl-N-[(4-methoxy-1H-benzimidazol-2-yl)methyl]-2-(4-methylpiperazin-1-yl)pyrazolo[1,5-a][1,3,5]triazin-4-amine], for which the DC50 in assay [1] was 0.763 nM. For the same molecule, the figures for the IC50 (in assay [2]; on CDK12/CycK) were 4.99 nM and 9530 nM, respectively.

`C[C@@H]1CN(c2nc(NCc3nc4cc(F)ccc4[nH]3)n3ncc(C4CC4)c3n2)C[C@H](C)N1` [Example 175, 8-cyclopropyl-2-[(3R,5S)-3,5-dimethylpiperazin-1-yl]-N-[(5-fluoro-1H-benzimidazol-2-yl)methyl]pyrazolo[1,5-a][1,3,5]triazin-4-amine]: the DC50 in assay [1] was 0.147 nM. Further, the IC50 in assay [2] amounted to 1.15 nM; on CDK12/CycK it was 11000 nM.

`Brc1cnn2c(NCc3nc4ccccc4[nH]3)nc(N3CC4CCC(C3)N4)nc12` [Example 232, N-(1H-benzimidazol-2-ylmethyl)-8-bromo-2-(3,8-diazabicyclo[3.2.1]octan-3-yl)pyrazolo[1,5-a][1,3,5]triazin-4-amine]: in assay [1], the DC50 came out at 1.06 nM. Moreover, the IC50 in assay [2] was 5.25 nM; at CDK12/CycK it was 5280 nM.

Values taken from patent publication US20230117034A1, “PYRAZOLOTRIAZINES” (Bayer Aktiengesellschaft, priority 2019, published 2023).
